In brackets after ≈: the same amount, converted by molar mass.
Key:
[1] = system: ovary cancer and cancers of thymus and others; conditions: cited from earlier work
[2] = solubility in physiological saline; assay type: physicochemical
Experimental: Solubility: 5 mg/ml (physiological saline)
In the tables, solubility means a solubility in physiological saline.

[3] = system: BDF1 mice; experiment: toxicity, intraperitoneal administration to BDF1 mice, 20 days observation; assay type: in vivo, mouse; conditions: 25 mg/kg, 4 times once a day, observed for 20 days
Excerpt: Further, the taxol derivative of the present invention or a pharmaceutically acceptable salt thereof has low toxicity and high water solubility.

[4] = cited from earlier work
[5] = system: various kinds of cancers; conditions: cited from earlier work
[6] = methanesulfonate, medium not printed at the place

SMILES | solubility ([2]; physiological saline) | also measured
CC(=O)O[C@@]12CO[C@@H]1C[C@H](O)[C@@]1(C)C(=O)[C@H](O)C3=C(C)[C@@H](OC(=O)[C@H](O)[C@@H](NC(=O)OC(C)(C)C)c4ccccc4)C[C@@](O)([C@@H](OC(=O)c4ccccc4)[C@H]21)C3(C)C [4α-acetoxy-2α-benzoyloxy-5β,20-epoxy-1β,7β,10β-trihydroxy-13α-[(2R,3S)-3-phenyl-3-(t-butoxycarbonylamino)-2-hydroxypropionyloxy]-tax-11-en-9-one] |  | antitumor activities [1]: excellent antitumor activities
CCOC(=O)[C@@H](N)CC(=O)OCC(=O)O[C@@H](C(=O)O[C@H]1C[C@@]2(O)[C@@H](OC(=O)c3ccccc3)[C@@H]3[C@]4(OC(C)=O)CO[C@@H]4C[C@H](O)[C@@]3(C)C(=O)[C@H](O)C(=C1C)C2(C)C)[C@@H](NC(=O)OC(C)(C)C)c1ccccc1 [Example 32, 4α-acetoxy-13α-{(2R,3S)-3-tert-butoxycarbonylamino-2-[((3S)-3-amino-3-ethoxycarbonylpropionyloxy)acetoxy]-3-phenylpropionyloxy}-2α-benzoyloxy-5β,20-epoxy-1β,7β,10β-trihydroxytax-11-en-9-one.methanesulfonate] | 5000 µg/mL | solubility [2, 6]: 5000 µg/mL; death [3]: no case of death was observed
CC(=O)O[C@@]12CO[C@@H]1C[C@H](O)[C@@]1(C)C(=O)[C@H](O)C3=C(C)[C@@H](OC(=O)[C@H](OC(=O)COC(=O)[C@@H]4CCCN4)[C@@H](NC(=O)OC(C)(C)C)c4ccccc4)C[C@@](O)([C@@H](OC(=O)c4ccccc4)[C@H]21)C3(C)C [Example 33] | 1400 µg/mL (≈ 1450 µM) | 
CC(=O)O[C@@]12CO[C@@H]1C[C@H](O)[C@@]1(C)C(=O)[C@H](O)C3=C(C)[C@@H](OC(=O)[C@H](OC(=O)COC(=O)CNC(=O)CN)[C@@H](NC(=O)OC(C)(C)C)c4ccccc4)C[C@@](O)([C@@H](OC(=O)c4ccccc4)[C@H]21)C3(C)C [Example 34] | 10000 µg/mL (≈ 10200 µM) | 
COCCOC(=O)[C@@H](N)CC(=O)OCC(=O)O[C@@H](C(=O)O[C@H]1C[C@@]2(O)[C@@H](OC(=O)c3ccccc3)[C@@H]3[C@]4(OC(C)=O)CO[C@@H]4C[C@H](O)[C@@]3(C)C(=O)[C@H](O)C(=C1C)C2(C)C)[C@@H](NC(=O)OC(C)(C)C)c1ccccc1 [Example 35, 4α-acetoxy-13α-{(2R,3S)-3-tert-butoxycarbonylamino-2-[((3S)-3-amino-3-(2-methoxyethoxycarbonyl)propionyloxy)acetoxy]-3-phenylpropionyloxy}-2α-benzoyloxy-5β,20-epoxy-1β,7β,10β-trihydroxytax-11-en-9-one.methanesulfonate] | 10000 µg/mL | solubility [2, 6]: 10000 µg/mL; death [3]: no case of death was observed
CC(=O)O[C@@]12CO[C@@H]1C[C@H](O)[C@@]1(C)C(=O)[C@H](O)C3=C(C)[C@@H](OC(=O)[C@H](OC(=O)COC(=O)[C@H](C)N)[C@@H](NC(=O)OC(C)(C)C)c4ccccc4)C[C@@](O)([C@@H](OC(=O)c4ccccc4)[C@H]21)C3(C)C [Example 36] | 2000 µg/mL (≈ 2130 µM) | 
CCOC(=O)[C@@H](N)CC(=O)OCCCCC(=O)O[C@@H](C(=O)O[C@H]1C[C@@]2(O)[C@@H](OC(=O)c3ccccc3)[C@@H]3[C@]4(OC(C)=O)CO[C@@H]4C[C@H](O)[C@@]3(C)C(=O)[C@H](O)C(=C1C)C2(C)C)[C@@H](NC(=O)OC(C)(C)C)c1ccccc1 [Example 37] | 1000 µg/mL (≈ 951 µM) | 
CC(=O)O[C@@]12CO[C@@H]1C[C@H](O)[C@@]1(C)C(=O)[C@H](O)C3=C(C)[C@@H](OC(=O)[C@H](OC(=O)COC(=O)CCN)[C@@H](NC(=O)c4ccccc4)c4ccccc4)C[C@@](O)([C@@H](OC(=O)c4ccccc4)[C@H]21)C3(C)C [Example 38] | 1000 µg/mL (≈ 1060 µM) | 
CCOC(=O)[C@@H](N)CC(=O)OCC(=O)O[C@@H](C(=O)O[C@H]1C[C@@]2(O)[C@@H](OC(=O)c3ccccc3)[C@@H]3[C@]4(OC(C)=O)CO[C@@H]4C[C@H](O)[C@@]3(C)C(=O)[C@H](O)C(=C1C)C2(C)C)[C@@H](NC(=O)c1ccco1)c1ccccc1 [Example 40] | 6000 µg/mL (≈ 5980 µM) | 
CCOC(=O)[C@@H](N)CC(=O)OCC(=O)O[C@@H](C(=O)O[C@H]1C[C@@]2(O)[C@@H](OC(=O)c3ccccc3)[C@@H]3[C@]4(OC(C)=O)CO[C@@H]4C[C@H](O)[C@@]3(C)C(=O)[C@H](O)C(=C1C)C2(C)C)[C@@H](NC(=O)c1cccs1)c1ccccc1 [Example 41] | 700 µg/mL (≈ 687 µM) | 
CCOC(=O)[C@@H](N)CC(=O)OCC(=O)O[C@@H](C(=O)O[C@H]1C[C@@]2(O)[C@@H](OC(=O)c3ccccc3)[C@@H]3[C@]4(OC(C)=O)CO[C@@H]4C[C@H](O)[C@@]3(C)C(=O)[C@H](O)C(=C1C)C2(C)C)[C@@H](NC(=O)CCCCCl)c1ccccc1 [Example 42] | 5000 µg/mL (≈ 4870 µM) | 
CCOC(=O)[C@@H](N)CC(=O)OCC(=O)O[C@@H](C(=O)O[C@H]1C[C@@]2(O)[C@@H](OC(=O)c3ccccc3)[C@@H]3[C@]4(OC(C)=O)CO[C@@H]4C[C@H](O)[C@@]3(C)C(=O)[C@H](O)C(=C1C)C2(C)C)[C@@H](NC(=O)c1cc(OC)ccc1OC)c1ccccc1 [Example 43] | 500 µg/mL (≈ 466 µM) | 
CCOC(=O)N[C@@H](c1ccccc1)[C@@H](OC(=O)COC(=O)C[C@H](N)C(=O)OCC)C(=O)O[C@H]1C[C@@]2(O)[C@@H](OC(=O)c3ccccc3)[C@@H]3[C@]4(OC(C)=O)CO[C@@H]4C[C@H](O)[C@@]3(C)C(=O)[C@H](O)C(=C1C)C2(C)C [Example 44] | 4000 µg/mL (≈ 4080 µM) | 
CCOC(=O)[C@@H](N)CC(=O)OCC(=O)O[C@@H](C(=O)O[C@H]1C[C@@]2(O)[C@@H](OC(=O)c3ccccc3)[C@@H]3[C@]4(OC(C)=O)CO[C@@H]4C[C@H](O)[C@@]3(C)C(=O)[C@H](O)C(=C1C)C2(C)C)[C@@H](NC(=O)OCC1C(C)(C)C1(F)F)c1ccccc1 (some centres unmarked) [Example 45] | 600 µg/mL (≈ 560 µM) | 
CCOC(=O)[C@@H](N)CC(=O)OCC(=O)O[C@@H](C(=O)O[C@H]1C[C@@]2(O)[C@@H](OC(=O)c3ccccc3)[C@@H]3[C@]4(OC(C)=O)CO[C@@H]4C[C@H](O)[C@@]3(C)C(=O)[C@H](O)C(=C1C)C2(C)C)[C@@H](NC(=O)OCC(F)(F)F)c1ccccc1 [Example 46] | 5000 µg/mL (≈ 4830 µM) | 
CCOC(=O)[C@@H](N)CC(=O)OCC(=O)O[C@@H](C(=O)O[C@H]1C[C@@]2(O)[C@@H](OC(=O)c3ccccc3)[C@@H]3[C@]4(OC(C)=O)CO[C@@H]4C[C@H](O)[C@@]3(C)C(=O)[C@H](O)C(=C1C)C2(C)C)[C@@H](NC(=O)OCCOC)c1ccccc1 [Example 47] | > 10000 µg/mL | 
CCOC(=O)[C@@H](N)CC(=O)OCC(=O)O[C@@H](C(=O)O[C@H]1C[C@@]2(O)[C@@H](OC(=O)c3ccccc3)[C@@H]3[C@]4(OC(C)=O)CO[C@@H]4C[C@H](O)[C@@]3(C)C(=O)[C@H](O)C(=C1C)C2(C)C)[C@@H](NC(=O)OCC1CCC1)c1ccccc1 [Example 48] | 1000 µg/mL (≈ 979 µM) | 
CCOC(=O)[C@@H](N)CC(=O)OCC(=O)O[C@@H](C(=O)O[C@H]1C[C@@]2(O)[C@@H](OC(=O)c3ccccc3)[C@@H]3[C@]4(OC(C)=O)CO[C@@H]4C[C@H](O)[C@@]3(C)C(=O)[C@H](O)C(=C1C)C2(C)C)[C@@H](NC(=O)OCC1CC1)c1ccccc1 [Example 49] | 5000 µg/mL (≈ 4960 µM) | 
CCOC(=O)[C@@H](N)CC(=O)OCC(=O)O[C@@H](C(=O)O[C@H]1C[C@@]2(O)[C@@H](OC(=O)c3ccccc3)[C@@H]3[C@]4(OC(C)=O)CO[C@@H]4C[C@H](O)[C@@]3(C)C(=O)[C@H](O)C(=C1C)C2(C)C)[C@@H](NC(=O)OC(C)(C)C)c1ccc(F)cc1F [Example 52] | 1000 µg/mL (≈ 957 µM) | 
CCOC(=O)[C@@H](N)CC(=O)OCC(=O)O[C@@H](C(=O)O[C@H]1C[C@@]2(O)[C@@H](OC(=O)c3ccccc3)[C@@H]3[C@]4(OC(C)=O)CO[C@@H]4C[C@H](O)[C@@]3(C)C(=O)[C@H](O)C(=C1C)C2(C)C)[C@@H](NC(=O)OC(C)(C)C)c1ccc(OC)cc1 [Example 56] | 15000 µg/mL (≈ 14400 µM) | 
COCCOC(=O)[C@@H](N)CC(=O)OCC(=O)O[C@@H](C(=O)O[C@H]1C[C@@]2(O)[C@@H](OC(=O)c3ccccc3)[C@@H]3[C@]4(OC(C)=O)CO[C@@H]4C[C@H](O)[C@@]3(C)C(=O)[C@H](O)C(=C1C)C2(C)C)[C@@H](NC(=O)OC(C)(C)C)c1ccc(F)cc1F [Example 57] | 5000 µg/mL (≈ 4650 µM) | 
CCOC(=O)[C@@H](N)CC(=O)OCC(=O)O[C@@H](C(=O)O[C@H]1C[C@@]2(O)[C@@H](OC(=O)c3ccccc3)[C@@H]3[C@]4(OC(C)=O)CO[C@@H]4C[C@H](O)[C@@]3(C)C(=O)[C@H](OC(C)=O)C(=C1C)C2(C)C)[C@@H](NC(=O)c1ccccc1)c1ccccc1 [Example 59, 4α,10β-diacetoxy-13α-{(2R,3S)-3-benzoylamino-2-[((3S)-3-amino-3-ethoxycarbonylpropionyloxy)acetoxy]-3-phenylpropionyloxy}-2α-benzoyloxy-5β,20-epoxy-1β,7β-dihydroxytax-l 1-en-9-one.methanesulfonate] | 300 µg/mL | 
CC(=O)O[C@H]1C(=O)[C@@]2(C)[C@H]([C@H](OC(=O)c3ccccc3)[C@]3(O)C[C@H](OC(=O)[C@H](O)[C@@H](NC(=O)c4ccccc4)c4ccccc4)C(C)=C1C3(C)C)[C@]1(OC(C)=O)CO[C@@H]1C[C@@H]2O [taxol, 4α,10β-diacetoxy-2α-benzoyloxy-5β,20-epoxy-1β,7β-dihydroxy-13α-[(2R,3S)-3-phenyl-3-benzoylamino-2-hydroxypropionyloxy]-tax-11-en-9-one] |  | water-solubility [4]: ≤ 4 µg/mL; antitumor activities [1]: excellent antitumor activities; anti-tumor activity [5]: excellent anti-tumor activity

Source: patent US5677470A, “Baccatin derivatives and processes for preparing the same” (Tanabe Seiyaku Co., Ltd., priority 1994, dated 1997)
